In patent publication US11046680B1, “Heteroaryl-substituted triazoles as APJ receptor agonists” (priority 2016, dated 2021):

Target: human APJ receptor (Homo sapiens (Human), UniProt P35414)
Test: biochemical
Assay type: biochemical
Conditions: [35S]GTPγS binding, CHO membranes expressing human APJ receptor; read-out: Activity hAPJ SPA EC50 IP
Experimental: The human APJ receptor was cloned by polymerase chain reaction and the gene encoding the receptor was subcloned in pFLAG-CMV™-3 expression vector (Sigma, Saint Louis, Mo. USA) in-house at Amgen. A GTPγS binding assay was performed on membranes prepared from CHO cells stably expressing human APJ receptor. The optimum experimental conditions for the concentrations of GDP, MgCl2, and NaCl in the assay buffer were initially determined. […] Incubation was at RT for 90 min and the microplate was read using a ViewLux™ ultra HTS Microplate Imager (PerkinElmer, Inc.).

Chain of human APJ receptor (P35414 whole entry): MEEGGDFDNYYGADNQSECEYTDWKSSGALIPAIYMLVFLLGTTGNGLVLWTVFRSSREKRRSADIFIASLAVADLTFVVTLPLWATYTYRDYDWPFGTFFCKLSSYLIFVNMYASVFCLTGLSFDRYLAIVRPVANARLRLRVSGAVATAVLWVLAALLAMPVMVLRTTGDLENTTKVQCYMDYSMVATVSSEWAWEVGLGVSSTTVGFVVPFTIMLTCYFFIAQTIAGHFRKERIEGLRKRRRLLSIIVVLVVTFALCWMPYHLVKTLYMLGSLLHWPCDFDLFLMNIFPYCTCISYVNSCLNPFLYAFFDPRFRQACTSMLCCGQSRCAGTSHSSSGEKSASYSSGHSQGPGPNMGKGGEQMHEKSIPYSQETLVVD

Structure (SMILES) | EC50
COc1cnc([C@@H](C)[C@H](C)S(=O)(=O)Nc2nnc(-c3ccn(C)n3)n2-c2c(OC)ncnc2OC)cn1 [Example 292.0, (2S,3R)-N-(4-(4,6-dimethoxy-5-pyrimidinyl)-5-(1-methyl-1H-pyrazol-3-yl)-4H-1,2,4-triazol-3-yl)-3-(5-methoxy-2-pyrazinyl)-2-butanesulfonamide] | 1.2 nM
COc1cccc(OC)c1-n1c(NS(=O)(=O)CCc2ccc(Cl)cc2)nnc1-c1cccs1 [Example 311.0, 2-(4-Chlorophenyl)-N-(4-(2,6-dimethoxyphenyl)-5-(thiophen-2-yl)-4H-1,2,4-triazol-3-yl)ethanesulfonamide] | 3.8 nM
COc1cccc(OC)c1-n1c(NS(=O)(=O)[C@@H](C)Cc2ncc(F)cn2)nnc1-c1cccnn1 (single isomer, unassigned) [Example 32.0, (2S)-N-(4-(2,6-dimethoxyphenyl)-5-(3-pyridazinyl)-4H-1,2,4-triazol-3-yl)-1-(5-fluoro-2-pyrimidinyl)-2-propanesulfonamide or (2R)-N-(4-(2,6-dimethoxyphenyl)-5-(3-pyridazinyl)-4H-1,2,4-triazol-3-yl)-1-(5-fluoro-2-pyrimidinyl)-2-propanesulfonamide] | 17 nM
COCC[C@@H]([C@H](C)c1ncc(F)cn1)S(=O)(=O)Nc1nnc(-c2nc(C)cs2)n1-c1c(OC)cccc1OC (single isomer, unassigned) [Example 21.0] | 90 nM
COc1cccc(OC)c1-n1c(NS(=O)(=O)[C@H](C)[C@H](O)c2ncc(C)cn2)nnc1-c1nc(C)cs1 (single isomer, unassigned) [Example 314.0, (1R,2R)-N-(4-(2,6-dimethoxyphenyl)-5-(4-methylthiazol-2-yl)-4H-1,2,4-triazol-3-yl)-1-hydroxy-1-(5-methylpyrimidin-2-yl)propane-2-sulfonamide or (1S,2S)-N-(4-(2,6-dimethoxyphenyl)-5-(4-methylthiazol-2-yl)-4H-1,2,4-triazol-3-yl)-1-hydroxy-1-(5-methylpyrimidin-2-yl)propane-2-sulfonamide] | 14 nM
COc1cccc(OC)c1-n1c(NS(=O)(=O)[C@@H](C)[C@H](OC)c2ncc(C)cn2)nnc1-c1ccn(C(F)F)n1 [Example 203.0, (1R,2S)-N-(5-(1-(difluoromethyl)-1H-pyrazol-3-yl)-4-(2,6-dimethoxyphenyl)-4H-1,2,4-triazol-3-yl)-1-methoxy-1-(5-methyl-2-pyrimidinyl)-2-propanesulfonamide] | 2.1 nM
COc1nc[nH]c(=O)c1-n1c(NS(=O)(=O)[C@@H](C)Cc2ncc(F)cn2)nnc1-c1ccn(C)n1 (racemic) [Example 7.0, (2R)-1-(5-fluoro-2-pyrimidinyl)-N-(4-(4-methoxy-6-oxo-1,6-dihydro-5-pyrimidinyl)-5-(1-methyl-1H-pyrazol-3-yl)-4H-1,2,4-triazol-3-yl)-2-propanesulfonamide and (2S)-1-(5-fluoro-2-pyrimidinyl)-N-(4-(4-methoxy-6-oxo-1,6-dihydro-5-pyrimidinyl)-5-(1-methyl-1H-pyrazol-3-yl)-4H-1,2,4-triazol-3-yl)-2-propanesulfonamide] | 51 nM
COc1cccc(OC)c1-n1c(NS(=O)(=O)[C@@H]2C[C@@H](O)CN(c3ncc(F)cn3)C2)nnc1-c1nc(C)cs1 (single isomer, unassigned) [Example 257.0, (3R,5R)-N-(4-(2,6-dimethoxyphenyl)-5-(4-methyl-1,3-thiazol-2-yl)-4H-1,2,4-triazol-3-yl)-1-(5-fluoro-2-pyrimidinyl)-5-hydroxy-3-piperidinesulfonamide or (3S,5S)-N-(4-(2,6-dimethoxyphenyl)-5-(4-methyl-1,3-thiazol-2-yl)-4H-1,2,4-triazol-3-yl)-1-(5-fluoro-2-pyrimidinyl)-5-hydroxy-3-piperidinesulfonamide] | 3.9 nM
